Laboratory results from paper PMC12187842, “A novel molecule targeting neutrophil-mediated B-1a cell trogocytosis attenuates sepsis-induced acute lung injury” (Frontiers in Immunology, 2025).

Legend:
[1] = system: neutrophil-mediated B-1a cell trogocytosis; test: Neutrophil-mediated B-1a cell trogocytosis by flow cytometry after C11 treatment in CLP mice; assay type: in vivo, mouse; conditions: C11 10 mg/kg i.p. once immediately after CLP; cells isolated 4 h after CLP; CFSE-positive events within Ly6G-positive neutrophils; n = 5-6/group; p < 0.05 vs. C11 (-)
From the text: (§1) Mice were anesthetized with 2% isoflurane in oxygen, and sepsis was induced via cecal ligation and puncture (CLP) ([26]). A 1-cm midline abdominal incision was made to expose the cecum, which was ligated 1-cm proximal to its end using a 4-0 silk suture. The cecum then was perforated with a single through-and-through puncture using a 22-gauge needle, positioned midway between the ligation and the tip of the cecum. A small amount of fecal material was gently extruded from the perforation sites to confirm the patency of the punctures, and the cecum was subsequently returned to the peritoneal cavity. Following abdominal closure, resuscitation was provided via subcutaneous (s.c.) injection of 500 µL normal saline. […]
B-1a cells (target cells) were isolated, and dead cells were removed using the EasySep Dead Cell Removal Kit (Cat. No. 17899, STEMCELL Technologies). […] Trogocytosis was evaluated using confocal imaging (LSM900; Zeiss, Oberkochen, Germany) to visualize the interaction between neutrophils and B-1a cells. NucBlue Live ReadyProbes Reagent (Thermo Fisher Scientific) was used for nuclear staining. For quantitative analysis, trogocytosis was assessed by flow cytometry, where CFSE (Carboxyfluorescein succinimidyl ester)-positive events within Ly6G-positive neutrophil populations were quantified as indicators of trogocytosis. […]

[2] = system: CLP-induced sepsis in C57BL/6 mice; test: Survival study in CLP mice; assay type: in vivo, mouse; conditions: C11 10 mg/kg i.p. once after CLP (Figure 5 legend: 10 μg/kg), single s.c. imipenem 0.5 mg/kg; n = 21/group; CLP vehicle 28.6%; p < 0.05 vs. CLP vehicle, log-rank
From the text: as §1, with “saline. Postoperative analgesia was administered with a single dose of 0.1 mg/kg buprenorphine.” for “saline.”
All statistical analyses were performed using Prism 10 (GraphPad Software, San Diego, CA). Data are expressed as the mean ± standard error of the mean (SEM), and p-values < 0.05 were considered statistically significant. […] For survival analysis, data were assessed using the Kaplan-Meier estimator and compared using the log-rank test.

With 126-ELKNRTVSWFS-136 [Compound C11] the “neutrophil-mediated B-1a cell trogocytosis” value [1] was “significantly reduced” and the survival [2] was 57.1%.
